According to US20170290774A1, “NEUROKININ-1 RECEPTOR ANTAGONIST COMPOSITION FOR TREATMENT OF DISEASES AND CONDITIONS OF THE RESPIRATORY TRACT” (PLUS VITECH, S.L., priority 2014, published 2017):

Assay: Tissue concentration of aprepitant by HPLC after oral or inhaled administration to rabbits
Type: in vivo, New Zealand albino rabbits
Conditions: rabbit
Method: Herein, New Zealand albino rabbits (New Zealand White Rabbits) with an initial average weight of approximately 3 kg were used. The rabbits were fed ad libitum and were monitored daily to check that signs of toxicity had not appeared. […] This mixture was administered as an aerosol to the airways of a group of 3 of said rabbits (Group 5) in a dose of 0.05 mg/kg body weight per day, to another group of three rabbits (Group 6) in a dose of 0.1 mg/kg body weight per day, to another group of three rabbits (group 7) in a dose of 0.2 mg/kg body weight per day and to another group of three rabbits (Group 8) in a dose of 0.4 mg/kg body weight per day. […] After seven days of treatment all animals were euthanized and necropsied. […] Samples were taken at the peripheral level of the lung parenchyma, just below the pleural surface. Tissue samples were also taken from the nasal cavity, pharynx, larynx and bronchi. […] The average is the arithmetic average calculated for each row or column of each table. The SD is the standard deviation, calculated for each row or column of each table.

concentration at 7 days (New Zealand White (albino), lung, right inferior lobe, po, 100 mg/kg/day, Lung concentration of aprepitant LIPD (right inferior lobe), Group 4, oral 100 mg/kg per day, seven days, individual cases): 4900 ng/g
concentration at 7 days (New Zealand White (albino), lung, right inferior lobe, po, 100 mg/kg/day, Lung concentration of aprepitant LIPD, Average ± SD of cases, Group 4, oral 100 mg/kg per day, seven days): 5600 ng/g
concentration at 7 days (New Zealand White (albino), lung, right middle lobe, inhaled, 0.05 mg/kg/day, Lung concentration of aprepitant LMPD (right middle lobe), Group 5, inhalation (aerosol, olive oil) 0.05 mg/kg per day, seven days, individual cases): 1500 ng/g
concentration at 7 days (New Zealand White (albino), lung, right middle lobe, inhaled, 0.05 mg/kg/day, Lung concentration of aprepitant LMPD, Average ± SD of cases, Group 5, inhalation (aerosol, olive oil) 0.05 mg/kg per day, seven days): 1500 ng/g
concentration at 7 days (New Zealand White (albino), lung, right middle lobe, inhaled, 0.1 mg/kg/day, Lung concentration of aprepitant LMPD (right middle lobe), Group 6, inhalation (aerosol, olive oil) 0.1 mg/kg per day, seven days, individual cases): 2900 ng/g
concentration at 7 days (New Zealand White (albino), lung, right middle lobe, inhaled, 0.1 mg/kg/day, Lung concentration of aprepitant LMPD, Average ± SD of cases, Group 6, inhalation (aerosol, olive oil) 0.1 mg/kg per day, seven days): 2900 ng/g
concentration at 7 days (New Zealand White (albino), lung, right middle lobe, inhaled, 0.2 mg/kg/day, Lung concentration of aprepitant LMPD (right middle lobe), Group 7, inhalation (aerosol, olive oil) 0.2 mg/kg per day, seven days, individual cases): 6000 ng/g
concentration at 7 days (New Zealand White (albino), lung, right middle lobe, inhaled, 0.2 mg/kg/day, Lung concentration of aprepitant LMPD, Average ± SD of cases, Group 7, inhalation (aerosol, olive oil) 0.2 mg/kg per day, seven days): 6030 ng/g
concentration at 7 days (New Zealand White (albino), lung, right middle lobe, po, 100 mg/kg/day, Lung concentration of aprepitant LMPD, Average ± SD of cases, Group 4, oral 100 mg/kg per day, seven days): 5400 ng/g
concentration at 7 days (New Zealand White (albino), lung, right superior lobe, inhaled, 0.05 mg/kg/day, Lung concentration of aprepitant LSPD (right superior lobe), Group 5, inhalation (aerosol, olive oil) 0.05 mg/kg per day, seven days, individual cases): 1400 ng/g
concentration at 7 days (New Zealand White (albino), lung, right superior lobe, inhaled, 0.05 mg/kg/day, Lung concentration of aprepitant LSPD, Average ± SD of cases, Group 5, inhalation (aerosol, olive oil) 0.05 mg/kg per day, seven days): 1400 ng/g
concentration at 7 days (New Zealand White (albino), lung, right superior lobe, inhaled, 0.1 mg/kg/day, Lung concentration of aprepitant LSPD (right superior lobe), Group 6, inhalation (aerosol, olive oil) 0.1 mg/kg per day, seven days, individual cases): 2900 ng/g
concentration at 7 days (New Zealand White (albino), lung, right superior lobe, inhaled, 0.1 mg/kg/day, Lung concentration of aprepitant LSPD, Average ± SD of cases, Group 6, inhalation (aerosol, olive oil) 0.1 mg/kg per day, seven days): 2800 ng/g
concentration at 7 days (New Zealand White (albino), lung, right superior lobe, inhaled, 0.2 mg/kg/day, Lung concentration of aprepitant LSPD (right superior lobe), Group 7, inhalation (aerosol, olive oil) 0.2 mg/kg per day, seven days, individual cases): 6100 ng/g
concentration at 7 days (New Zealand White (albino), lung, right superior lobe, inhaled, 0.2 mg/kg/day, Lung concentration of aprepitant LSPD, Average ± SD of cases, Group 7, inhalation (aerosol, olive oil) 0.2 mg/kg per day, seven days): 6000 ng/g
concentration at 7 days (New Zealand White (albino), lung, right superior lobe, po, 100 mg/kg/day, Lung concentration of aprepitant LSPD, Average ± SD of cases, Group 4, oral 100 mg/kg per day, seven days): 4700 ng/g
concentration at 7 days (New Zealand White, in vivo, 0.4 mg/kg/day, Lung concentration of aprepitant, Average ± SD of the five lobes per case): 9900 ng/g
concentration at 7 days (New Zealand White, in vivo, po, 10 mg/kg/day, Lung concentration of aprepitant, Average ± SD of the five lobes per case): 960 ng/g
concentration at 7 days (New Zealand White, in vivo, po, 40 mg/kg/day, Lung concentration of aprepitant, Average ± SD of the five lobes per case): 4200 ng/g
concentration at 7 days (New Zealand White, in vivo, po, 80 mg/kg/day, Lung concentration of aprepitant, Average ± SD of the five lobes per case): 4400 ng/g
concentration at 7 days (New Zealand White, lung, left inferior lobe, inhaled, 0.2 mg/kg/day, Lung concentration of aprepitant LIPI, Average ± SD of cases, Group 7, inhalation (aerosol, olive oil) 0.2 mg/kg per day, seven days): 5900 ng/g
concentration at 7 days (New Zealand White, lung, left inferior lobe, inhaled, 0.4 mg/kg/day, Lung concentration of aprepitant LIPI (left inferior lobe), Group 8, inhalation (aerosol, olive oil) 0.4 mg/kg per day, seven days, individual cases): 10000 ng/g
concentration at 7 days (New Zealand White, lung, left inferior lobe, inhaled, 0.4 mg/kg/day, Lung concentration of aprepitant LIPI, Average ± SD of cases, Group 8, inhalation (aerosol, olive oil) 0.4 mg/kg per day, seven days): 10000 ng/g
concentration at 7 days (New Zealand White, lung, left inferior lobe, po, 10 mg/kg/day, Lung concentration of aprepitant LIPI (left inferior lobe), Group 1, oral 10 mg/kg per day, seven days, individual cases): 1500 ng/g
concentration at 7 days (New Zealand White, lung, left inferior lobe, po, 10 mg/kg/day, Lung concentration of aprepitant LIPI, Average ± SD of cases, Group 1, oral 10 mg/kg per day, seven days): 1300 ng/g
concentration at 7 days (New Zealand White, lung, left inferior lobe, po, 40 mg/kg/day, Lung concentration of aprepitant LIPI (left inferior lobe), Group 2, oral 40 mg/kg per day, seven days, individual cases): 5400 ng/g
concentration at 7 days (New Zealand White, lung, left inferior lobe, po, 40 mg/kg/day, Lung concentration of aprepitant LIPI, Average ± SD of cases, Group 2, oral 40 mg/kg per day, seven days): 4000 ng/g
concentration at 7 days (New Zealand White, lung, left inferior lobe, po, 80 mg/kg/day, Lung concentration of aprepitant LIPI (left inferior lobe), Group 3, oral 80 mg/kg per day, seven days, individual cases): 3600 ng/g
concentration at 7 days (New Zealand White, lung, left inferior lobe, po, 80 mg/kg/day, Lung concentration of aprepitant LIPI, Average ± SD of cases, Group 3, oral 80 mg/kg per day, seven days): 3700 ng/g
concentration at 7 days (New Zealand White, lung, left superior lobe, inhaled, 0.2 mg/kg/day, Lung concentration of aprepitant LSPI, Average ± SD of cases, Group 7, inhalation (aerosol, olive oil) 0.2 mg/kg per day, seven days): 6030 ng/g
concentration at 7 days (New Zealand White, lung, left superior lobe, inhaled, 0.4 mg/kg/day, Lung concentration of aprepitant LSPI (left superior lobe), Group 8, inhalation (aerosol, olive oil) 0.4 mg/kg per day, seven days, individual cases): 9900 ng/g
concentration at 7 days (New Zealand White, lung, left superior lobe, inhaled, 0.4 mg/kg/day, Lung concentration of aprepitant LSPI, Average ± SD of cases, Group 8, inhalation (aerosol, olive oil) 0.4 mg/kg per day, seven days): 10000 ng/g
SMILES: C[C@@H](OC1OCCN(Cc2nc(=O)[nH][nH]2)C1c1ccc(F)cc1)c1cc(C(F)(F)F)cc(C(F)(F)F)c1 (stereo in doubt) [Aprepitant, 5-([(2R,3S)-2-((R)-1-[3,5-bis(trifluoromethyl)phenyl]ethoxy)-3-(4-fluorophenyl)morpholino]methyl)-1H-1,2,4-triazol-3(2H)-one]
